How the values were obtained:
[1] = target: T1, Melatonin receptor type 1A (Homo sapiens, UniProt P48039); test: Displacement of 2-[125I]iodomelatonin from human MT1 receptor expressed in HEK or CHO cell membranes after 120 mins
[2] = target: T2, Melatonin receptor type 1B (Homo sapiens, UniProt P49286); test: Displacement of 2-[125I]iodomelatonin from human MT2 receptor expressed in HEK or CHO cell membranes after 120 mins
T2 sequence (P49286 whole entry): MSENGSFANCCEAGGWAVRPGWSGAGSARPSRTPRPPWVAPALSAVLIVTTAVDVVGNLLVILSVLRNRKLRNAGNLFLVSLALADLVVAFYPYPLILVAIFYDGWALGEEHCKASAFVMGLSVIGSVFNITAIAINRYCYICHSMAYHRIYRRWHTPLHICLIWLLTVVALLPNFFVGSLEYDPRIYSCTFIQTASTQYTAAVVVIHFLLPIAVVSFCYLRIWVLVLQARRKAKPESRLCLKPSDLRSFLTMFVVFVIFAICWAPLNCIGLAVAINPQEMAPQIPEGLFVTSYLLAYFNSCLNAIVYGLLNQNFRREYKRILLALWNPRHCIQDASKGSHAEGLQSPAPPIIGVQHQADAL

Homo sapiens = species on record: Homo sapiens; test: Selectivity ratio of Ki for human MT1 receptor to Ki for human MT2 receptor
[3] = target: T1, Melatonin receptor type 1A; test: Intrinsic activity at human MT1 receptor expressed in CHO cell membranes after 1 hr by [35S]GTPgammaS binding assay; assay type: functional
[4] = target: T2, Melatonin receptor type 1B; test: Intrinsic activity at human MT2 receptor expressed in CHO cell membranes after 1 hr by [35S]GTPgammaS binding assay; assay type: functional

T1 sequence (P48039 whole entry): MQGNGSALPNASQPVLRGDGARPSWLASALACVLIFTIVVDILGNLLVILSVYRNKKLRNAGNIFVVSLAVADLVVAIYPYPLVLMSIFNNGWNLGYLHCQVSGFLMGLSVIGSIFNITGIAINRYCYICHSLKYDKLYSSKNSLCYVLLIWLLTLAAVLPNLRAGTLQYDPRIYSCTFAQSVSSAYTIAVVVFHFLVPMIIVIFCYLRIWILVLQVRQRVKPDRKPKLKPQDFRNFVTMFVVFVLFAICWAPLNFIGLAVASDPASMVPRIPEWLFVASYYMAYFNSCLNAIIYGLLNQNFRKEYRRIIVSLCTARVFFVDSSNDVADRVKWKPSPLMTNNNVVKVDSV

Ki [1] [nM]	Ki [2] [nM]	Ratio Ki (Homo sapiens)	EC50 [3] [nM]	EC50 [4] [nM]	SMILES
575	73	–	–	–	CCNC(=O)NCCc1cccc2ncc(OC)cc12
34	0.5	86	–	–	COc1ccc2cccc(CCC(=O)NC3CC3)c2n1
2	0.2	–	1620	0.2	COc1ccc2cccc(CCNC(N)=O)c2n1
60	4	–	–	–	COc1cnc2cccc(CCNC(C)=O)c2c1
58	22	–	–	–	COc1ccc2ccc(CCNC(C)=O)cc2n1
0.6	0.09	–	19	0.09	CNC(=O)NCCc1cccc2ccc(OC)nc12
2	0.1	–	90	0.1	CNC(=S)NCCc1cccc2ccc(OC)nc12
0.8	0.09	–	9.5	0.2	CCNC(=O)NCCc1cccc2ccc(OC)nc12
315	40	–	–	–	COc1cnc2cccc(CCNC(N)=O)c2c1
8	0.3	27	65	0.7	CNC(=O)CCc1cccc2ccc(OC)nc12
19	0.3	–	–	–	COc1ccc2cccc(CCC(=O)NCCF)c2n1
7	0.3	–	> 1000	0.4	COC(=O)NCCc1cccc2ccc(OC)nc12
124	26	–	–	–	COc1cnc2cccc(CCNC(=O)C3CC3)c2c1
> 10000	430	–	–	–	COC(=O)NCCc1cccc2ncc(OC)cc12
0.3	0.2	–	0.8	0.2	COc1ccc2cccc(CCNC(C)=O)c2n1
4	0.4	–	31	1.1	CCNC(=S)NCCc1cccc2ccc(OC)nc12
690	550	–	–	–	CCNC(=S)NCCc1cccc2ncc(OC)cc12
> 10000	250	–	–	–	CNC(=S)NCCc1cccc2ncc(OC)cc12

SMILES	Ki [1] [nM]	Ki [2] [nM]	Ratio Ki (Homo sapiens)	EC50 [3] [nM]	EC50 [4] [nM]
COc1cnc2cccc(CCNC(=O)CF)c2c1	29	6	–	–	–
